Experimental data from patent US10647719B2, “Bicyclic compounds as dual ATX/CA inhibitors” (Hoffmann-La Roche Inc., priority 2015, dated 2020).
Read-outs that look alike come from different tables or passages of the source.

Key:
human ATX = human ATX (Homo sapiens (Human), UniProt Q13822); assay: Human ATX enzyme inhibition assay (fluorescence quenching, MR121 substrate); type: biochemical
Outline: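 Human His-tagged ATX (30 nM final) preincubated 15 min at 30 °C with serially diluted compounds in Tris buffer pH 8.0 with Ca2+, Mg2+ and 0.01% Triton X-100. MR121/tryptophan-labelled substrate analogue (1 μM final) then added for 15 min at 30 °C; cleavage read by fluorescence dequenching.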

[1] = target: Human carbonic anhydrase II (hCA-II) (Homo sapiens (Human), UniProt P00918); assay: Human carbonic anhydrase-II inhibition assay (absorbance, 4-nitrophenyl acetate substrate); type: biochemical

| Structure (SMILES) | IC50 (human ATX) | IC50 [1] | IC50 (human ATX; human His-tagged ATX 30 nM, MR121 substrate 1 μM, 30° C., read-out: ATX IC50) | IC50 ([1]; hCA II 8 nM, 4-NPA 2.5 mM, absorbance 340 nm, room temperature 1 hour, read-out: CA-II IC50) |
| --- | --- | --- | --- | --- |
| CC(C)(C)C(=O)Nc1cc(C#N)c(Cl)cc1COC(=O)N1CC2=C(C1)CN(C(=O)c1ccc(S(N)(=O)=O)cn1)C2 [Example 2.00, [5-Chloro-4-cyano-2-(2,2-dimethylpropanoylamino)phenyl]methyl 2-(5-sulfamoylpyridine-2-carbonyl)-1,3,4,6-tetrahydropyrrolo[3,4-c]pyrrole-5-carboxylate] | 1 nM | 24 nM |  |  |
| CC(C)(C)C(=O)Nc1cc2ccccc2nc1COC(=O)N1CC2=C(C1)CN(C(=O)c1ccc(S(N)(=O)=O)cc1F)C2 [Example 4.01, [3-(2,2-dimethylpropanoylamino)quinolin-2-yl]methyl 2-(2-fluoro-4-sulfamoylbenzoyl)-1,3,4,6-tetrahydropyrrolo[3,4-c]pyrrole-5-carboxylate] |  |  | 3 nM | 3.6 nM |
